Where two headings read alike, the source gives them in different places. Marks after values point to notes of the source that are not given here.

The values that follow come from PMC6181319, “Thermodynamic and computational analyses reveal the functional roles of the galloyl group of tea catechins in molecular recognition” (PLoS ONE, 2018).

In series [1] the target is T1, human serum albumin (HSA) (Homo sapiens, UniProt P02768). The series is described as follows: Isothermal titration calorimetry (ITC) of binding of catechins and analogs to HSA. Also on record: purchased Sigma-Aldrich Japan (Tokyo, Japan). As to conditions: for change of binding affinity with addition of 0.2 M NaCl: 0.2 M NaCl versus no NaCl. The protocol: The binding of the catechins and its analogs to HSA was examined in a VP-ITC instrument (Microcal Northampton, MA). […] The data were analyzed with the Origin software (ver. 7) by means of a single-binding-site model. The thermodynamic parameters were obtained from three replicate titrations, where the dilution heats of the ligands were subtracted.
T1 sequence (P02768 25-609): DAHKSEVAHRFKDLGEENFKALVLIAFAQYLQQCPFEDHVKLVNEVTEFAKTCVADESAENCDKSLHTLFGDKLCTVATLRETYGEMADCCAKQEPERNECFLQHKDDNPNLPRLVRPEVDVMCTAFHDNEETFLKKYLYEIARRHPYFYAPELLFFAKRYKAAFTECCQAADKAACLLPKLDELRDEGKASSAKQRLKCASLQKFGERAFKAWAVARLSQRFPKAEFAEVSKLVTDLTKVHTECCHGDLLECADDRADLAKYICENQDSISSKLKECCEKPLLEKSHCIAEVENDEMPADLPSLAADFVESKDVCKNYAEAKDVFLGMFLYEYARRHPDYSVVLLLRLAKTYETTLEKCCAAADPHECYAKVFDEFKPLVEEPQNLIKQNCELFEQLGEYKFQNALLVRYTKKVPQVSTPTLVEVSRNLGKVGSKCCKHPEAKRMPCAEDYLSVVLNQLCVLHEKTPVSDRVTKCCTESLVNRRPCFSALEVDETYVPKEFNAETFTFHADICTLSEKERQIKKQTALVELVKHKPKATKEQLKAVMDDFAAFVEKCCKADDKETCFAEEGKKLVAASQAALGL

For series [2], the target named is T1, human serum albumin (HSA). The series can be described thus: Differential scanning calorimetry (DSC), thermal stability of HSA–ligand complexes. The note with it: for Tm: DSC, HSA 50 μM, ligand 500 μM, 50 mM sodium phosphate pH 6.8, HSA alone 68.6 ± 0.1; for ΔTm at 500 µM: human, pH 6.8. In general terms: Differential scanning calorimetry records heat flow against a reference as temperature is scanned.
Protocol: The thermal stabilities of HSA and the HSA–ligand complexes were determined by differential scanning calorimetry in a VP-DSC autosampler instrument (GE Healthcare). The cell was heated from 303 to 363 K at a rate of 1 K min^−1. The concentrations of HSA and the ligands were 50 and 500 μM, respectively, in a buffer composed of 50 mM sodium phosphate (pH 6.8). The data analysis was carried out with the Origin software (ver. 7) using a two-state model.

Setting [3] is: Table 2, methylated catechin derivatives, ITC, 298 K.
Setting [4] is: Table 2, methylated catechin derivatives, ITC, 298 K, 50 mM sodium phosphate pH 6.8.
The mark [5] stands for this setting: Table 2, methylated catechin derivatives, ITC, 298 K, 50 mM sodium phosphate pH 6.8, read-out: KD.
[6] abbreviates: S1 Table, ITC binding affinity listed beside Tm, read-out: KD.
The mark [7] stands for this setting: Table 1, ITC, 298 K, 50 mM sodium phosphate pH 6.8.
The mark [8] stands for this setting: Table 1, ITC, 298 K, 50 mM sodium phosphate pH 6.8, HSA 50 μM, single-binding-site model.
[9] abbreviates: Table 1, ITC, 298 K, 50 mM sodium phosphate pH 6.8, read-out: KD.
The mark [10] stands for this setting: human serum albumin (HSA) 50 µM in buffer.
The mark [11] stands for this setting: S2 Table, NaCl 0 M, read-out: KD.
Setting [12] is: S2 Table, NaCl 0.2 M, read-out: KD.

For `COc1c(O)cc([C@H]2Oc3cc(O)cc(O)c3C[C@H]2OC(=O)c2cc(O)c(O)c(O)c2)cc1O` [EGCg-4′-O-Me, (−)-epigallocatechin-4′-O-methylether gallate], in series [1] (setting [3]), the ΔG is -7.9 ± 0.1 kcal/mol, the ΔH was -7.0 ± 0.1 kcal/mol and the “−TΔS” value is -0.8 ± 0.1 kcal/mol. Further, the “N (number of binding sites)” value in series [1] (setting [4]) came to 0.9 ± 0.1. Besides, in series [1] (setting [5]), the equilibrium dissociation constant (Kd) was found to be 1.7 ± 0.1 µM.
Turning to `Oc1cc(O)c2c(c1)O[C@@H](c1ccc(O)c(O)c1)[C@H](O)C2` [C, (+)-catechin], the Kd in series [1] (setting [6]) is 5 ± 8.6 µM. In series [1] (Table 1, ITC, 298 K), the ΔH/ΔG is given as 4%. In addition, in series [1] (setting [7]), the ΔG is -7.1 ± 0.6 kcal/mol, the ΔH was -0.3 ± 0.1 kcal/mol and the “−TΔS” value is -6.8 ± 0.7 kcal/mol. In addition, the “N (number of binding sites)” value in series [1] (setting [8]) turned out to be 1.0 ± 0.2. In series [1] (setting [9]), the dissociation constant Kd came out at 5 ± 8.6 µM. Moreover, in series [2], the Tm is 68.5 ± 0.1 °C. Also, in series [2] (setting [10]), the thermal shift (ΔTm) at 500 µM was -0.1 °C.
`Oc1cc(O)c2c(c1)O[C@H](c1ccc(O)c(O)c1)[C@H](O)C2` [EC, (−)-epicatechin]: in series [1] (ITC), the “change of binding affinity with addition of 0.2 M NaCl” value (from here on “change of binding affinity”) is reported as “increased”. In series [1] (ITC, 298 K), the “thermodynamic profile of binding (enthalpy-driven or entropy-driven)” value (from here on “thermodynamic profile of binding”) was “entropy-driven”. Besides, the equilibrium dissociation constant (Kd) in series [1] (setting [6]) stood at 49 ± 18 µM; in series [1] (setting [11]), 48.7 µM; in series [1] (setting [12]), 0.7 µM; in series [1] (setting [9]) it was 49 ± 18 µM. For the same molecule, the ΔH/ΔG in series [1] (Table 1, ITC, 298 K) was 13%. Moreover, the ΔG in series [1] (setting [7]) is -5.8 ± 0.2 kcal/mol. Further, the ΔH in series [1] (setting [7]) was -0.8 ± 0.2 kcal/mol. Also, the “−TΔS” value in series [1] (setting [7]) is -5.1 ± 0.4 kcal/mol. The “N (number of binding sites)” value in series [1] (setting [8]) is 1.0 ^b. The Tm in series [2] worked out at 68.7 ± 0.3 °C. Besides, the ΔTm at 500 µM in series [2] (setting [10]) turned out to be 0 °C.
In the case of `CCOC(=O)c1cc(O)c(O)c(O)c1` [EtGa, Ethyl gallate], the “change of binding affinity” value in series [1] (ITC) was “increased”. Further, the equilibrium dissociation constant (Kd) is 45.7 µM in series [1] (setting [11]), 16.6 µM in series [1] (setting [12]) and 46 ± 23 µM in series [1] (setting [9]). Further, in series [1] (Table 1, ITC, 298 K), the ΔH/ΔG came to 24%. The ΔG in series [1] (setting [7]) is -5.9 ± 0.3 kcal/mol. The ΔH in series [1] (setting [7]) was -1.4 ± 0.1 kcal/mol. In addition, the “−TΔS” value in series [1] (setting [7]) is -4.5 ± 0.4 kcal/mol. The “N (number of binding sites)” value in series [1] (setting [8]) is on record as 1.0 ^b.
As to `Oc1cc(O)c2c(c1)O[C@@H](c1cc(O)c(O)c(O)c1)[C@H](O)C2` [GC, (−)-gallocatechin], in series [1] (KD, S1 Table, ITC binding affinity listed beside Tm), the dissociation constant Kd stood at 52 ± 16 µM. The molecule also yielded a Kd in series [1] (KD, Table 1, ITC, 298 K, 50 mM sodium phosphate pH 6.8) of 52 ± 16 µM. In series [1] (Table 1, ITC, 298 K), this molecule returned a ΔH/ΔG of 19%. For the same molecule, in series [1] (setting [7]), the ΔG is -5.8 ± 0.2 kcal/mol, the ΔH is -1.1 ± 0.5 kcal/mol and the “−TΔS” value is -4.7 ± 0.7 kcal/mol. Also, the “N (number of binding sites)” value in series [1] (setting [8]) is listed as 1.0 ^b. In series [2], the Tm amounted to 69.3 ± 0.3 °C and the thermal shift (ΔTm) at 500 µM was determined as 0.7 °C.
With `COc1cc([C@H]2Oc3cc(O)cc(O)c3C[C@H]2OC(=O)c2cc(O)c(O)c(O)c2)cc(O)c1O` [EGCg-3′-O-Me, (−)-Epigallocatechin-3′-O-methylether gallate], in series [1] (setting [3]), the ΔG was -7.9 ± 0.1 kcal/mol, the ΔH was -9.3 ± 0.4 kcal/mol and the “−TΔS” value was found to be 1.4 ± 0.3 kcal/mol. For the same molecule, in series [1] (setting [4]), the “N (number of binding sites)” value was 0.9 ± 0.1. In series [1] (setting [5]), the Kd was found to be 1.6 ± 0.2 µM.
Take `COc1cc(C(=O)O[C@@H]2Cc3c(O)cc(O)cc3O[C@@H]2c2cc(O)c(O)c(O)c2)cc(O)c1O` [EGCg-3′′-O-Me, (−)-epigallocatechin-3′′-O-methylether gallate]: the N in series [1] (S3 Table, temperature 288 K) is 1.1±0.1; in series [1] (S3 Table, temperature 293 K), 1.0±0.1; in series [1] (S3 Table, temperature 298 K), 1.0±0.1; in series [1] (S3 Table, temperature 303 K), 1.1±0.1. The ΔG is -8.9 ± 0.1 kcal/mol in series [1] (S3 Table, temperature 288 K); -9.3 ± 0.1 kcal/mol in series [1] (S3 Table, temperature 293 K); -9.4 ± 0.1 kcal/mol in series [1] (S3 Table, temperature 298 K); -9.4 ± 0.2 kcal/mol in series [1] (S3 Table, temperature 303 K); -9.4 ± 0.1 kcal/mol in series [1] (setting [3]). Further, the ΔH in series [1] (S3 Table, temperature 288 K) was -5.7 ± 1.2 kcal/mol; in series [1] (S3 Table, temperature 293 K), -6.9 ± 1.7 kcal/mol; in series [1] (S3 Table, temperature 298 K), -7.4 ± 0.9 kcal/mol; in series [1] (S3 Table, temperature 303 K), -8.7 ± 0.5 kcal/mol; in series [1] (setting [3]), -7.9 ± 0.9 kcal/mol. Further, the “−TΔS” value is -3.2 ± 1.2 kcal/mol in series [1] (S3 Table, temperature 288 K); -2.4 ± 1.7 kcal/mol in series [1] (S3 Table, temperature 293 K); -1.9 ± 0.9 kcal/mol in series [1] (S3 Table, temperature 298 K); -0.7 ± 0.4 kcal/mol in series [1] (S3 Table, temperature 303 K). Moreover, the dissociation constant Kd in series [1] (S3 Table, temperature 288 K, read-out: KD) was 0.19 ± 0.04 µM; in series [1] (S3 Table, temperature 293 K, read-out: KD), 0.12 ± 0.02 µM; in series [1] (S3 Table, temperature 298 K, read-out: KD), 0.14 ± 0.02 µM; in series [1] (S3 Table, temperature 303 K, read-out: KD), 0.16 ± 0.04 µM; in series [1] (setting [5]), 0.14 ± 0.02 µM; in series [1] (human, human serum albumin (HSA) 50 µM in buffer, pH 6.8, Table 2, methylated catechin derivatives, ITC, 298 K, 50 mM sodium phosphate pH 6.8, read-out: KD), 0.2 µM. The “N (number of binding sites)” value in series [1] (setting [4]) was found to be 1.0 ± 0.1. The “ΔCp (change in heat capacity)” value in series [1] (slope of ΔH versus temperature, 288 to 303 K) is on record as −195 cal mol^−1 K^−1.
In the case of `O=C(O[C@@H]1Cc2c(O)cc(O)cc2O[C@@H]1c1ccc(O)c(O)c1)c1cc(O)c(O)c(O)c1` [ECg, (−)-epicatechin gallate], the “change of binding affinity” value in series [1] (ITC) is on record as “decreased”. The “thermodynamic profile of binding” value in series [1] (ITC, 298 K) is “enthalpy-driven”. Also, the dissociation constant Kd in series [1] (setting [6]) is 1.1 ± 0.1 µM. Also, in series [1] (setting [12]), the equilibrium dissociation constant (Kd) stood at 3.7 µM. In addition, the ΔH/ΔG in series [1] (Table 1, ITC, 298 K) worked out at 63%. Also, in series [1] (setting [7]), the ΔG was -8.1 ± 0.1 kcal/mol, the ΔH was -5.1 ± 0.5 kcal/mol and the “−TΔS” value was -3.1 ± 0.5 kcal/mol. For the same molecule, the “N (number of binding sites)” value in series [1] (setting [8]) was 1.0 ± 0.1. Moreover, the Kd in series [1] (setting [9]) is 1.1 ± 0.1 µM. The Tm in series [2] came to 72.2 ± 0.1 °C. For the same molecule, the ΔTm at 500 µM in series [2] (setting [10]) turned out to be 3.5 °C.
For the molecule `COc1c(O)cc(C(=O)O[C@@H]2Cc3c(O)cc(O)cc3O[C@@H]2c2cc(O)c(O)c(O)c2)cc1O` [EGCg-4′′-O-Me, (−)-epigallocatechin-4′′-O-methylether gallate], in series [1] (setting [3]), the ΔG is -8.2 ± 0.1 kcal/mol, the ΔH is -9.8 ± 0.1 kcal/mol and the “−TΔS” value turned out to be 1.6 ± 0.1 kcal/mol. Moreover, the “N (number of binding sites)” value in series [1] (setting [4]) was 1.0 ± 0.1. Also, the Kd in series [1] (setting [5]) was 1 ± 0.1 µM.
As to `O=C(O[C@@H]1Cc2c(O)cc(O)cc2O[C@H]1c1ccc(O)c(O)c1)c1cc(O)c(O)c(O)c1` [Cg, (−)-catechin gallate], in series [1] (ITC, 298 K), the “thermodynamic profile of binding” value was “entropy-driven”. The Kd in series [1] (setting [6]) amounted to 3.5 ± 0.5 µM. The molecule also had a ΔH/ΔG in series [1] (Table 1, ITC, 298 K) of 38%. In series [1] (setting [7]), the ΔG is -7.4 ± 0.1 kcal/mol, the ΔH is -2.8 ± 0.6 kcal/mol and the “−TΔS” value is -4.6 ± 0.7 kcal/mol. In addition, the “N (number of binding sites)” value in series [1] (setting [8]) was 1.0 ± 0.1. Further, in series [1] (setting [9]), the Kd was found to be 3.5 ± 0.5 µM. Moreover, in series [2], the Tm turned out to be 71.7 ± 0.1 °C. Moreover, the shift in melting temperature (ΔTm) at 500 µM in series [2] (setting [10]) came out at 3.1 °C.
On to `O=C(O[C@@H]1Cc2c(O)cc(O)cc2O[C@H]1c1cc(O)c(O)c(O)c1)c1cc(O)c(O)c(O)c1` [GCg, (−)-gallocatechin gallate], for which, in series [1] (ITC), the “change of binding affinity” value is recorded as “decreased”. The “thermodynamic profile of binding” value in series [1] (ITC, 298 K) is recorded as “entropy-driven”. The Kd stood at 8.8 ± 3.4 µM in series [1] (setting [6]), 18.6 µM in series [1] (setting [12]) and 8.8 ± 3.4 µM in series [1] (setting [9]). Besides, the ΔH/ΔG in series [1] (Table 1, ITC, 298 K) was found to be 43%. In addition, the ΔG in series [1] (setting [7]) was -6.9 ± 0.2 kcal/mol. Besides, the ΔH in series [1] (setting [7]) is -3.0 ± 0.1 kcal/mol. In series [1] (setting [7]), the “−TΔS” value is -3.9 ± 0.3 kcal/mol. Also, in series [1] (setting [8]), the “N (number of binding sites)” value came out at 1.2 ± 0.2. In series [2], the Tm stood at 73.3 ± 0.2 °C. The ΔTm at 500 µM in series [2] (setting [10]) amounted to 4.6 °C.

The Kd is a measure of binding affinity in units of concentration. For orientation: ΔTm means the shift of the melting midpoint relative to a reference.
